Reference: US10226453B2, “3-(1H-indol-2-yl)-1H-pyrazolo[4,3-B]pyridines and therapeutic uses thereof” (Samumed, LLC, priority 2015, dated 2019)

Tests used:
Type in all cases: cell-based
SW480 colon cancer cells = assay: Cell viability assay (CellTiter-Blue), SW480 colon cancer cells; details: Homo sapiens, 96 h, four days; for EC50: CellTiter-Blue; for inhibition at 10 µM: given where EC50 >10 μM, read-out: percent inhibition at 10 μM
Summary of the method: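 SW480 cells (~2×10^3/well) exposed four days at 37 °C to 8-point 1:3 dilutions, 10 μM down to 0.0045 μM. Viability from resazurin reduction (CellTiter-Blue, ~3 h, Ex 560/Em 590); EC50 by non-linear regression, or percent inhibition at 10 μM where EC50 exceeds 10 μM.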

[1] = tested on: Wnt activity (Sp5-Luc reporter, SW480 colon carcinoma cells); assay: Wnt activity screening assay: Sp5-Luc reporter gene in SW480 colon carcinoma cells; details: Homo sapiens; for EC50: overnight incubation, 10-point curve from 10 μM
Summary of the method: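 First, hygromycin-selected SW480 Sp5-Luc reporter cells are seeded in medium with 1% fetal bovine serum and exposed overnight to compound (up to 10 μM, 0.1% DMSO). Next, luciferase signal is read by luminescence. Finally, EC50 is fitted, or percent inhibition at 10 μM is reported above 10 μM.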

[2] = tested on: primary human mesenchymal stem cells (hMSCs); assay: Induction of chondrogenesis in primary human mesenchymal stem cells (hMSCs), nodule count; details: 144 h, 6 days; for EC50: concentration required to induce 50% levels of chondrogenesis of TGF-β3 control, read-out: Conc (nM) of 50% TGF-β3 activity; for Emax: relative to TGF-β3 (10 ng/mL) positive control, read-out: Max. Activity as % TGF-β3 activity
Description: Representative compounds were screened using primary human mesenchymal stem cells (hMSCs) to determine their ability to induce chondrogenesis (process by which cartilage is developed).
Primary human mesenchymal stem cells (hMSCs) were purchased from Lonza (Walkersville, Md.) and expanded in Mesenchymal Stem Cell Growth Media (Lonza). Cells between passage 3 and 6 were used for the experiments.
Each compound was dissolved in DMSO as a 10 mM stock and used to prepare compound source plates. Serial dilution (1:3, 6-point dose-response curves from 2700 nM to 10 nM) and compound transfer was performed using the ECHO 550 (Labcyte, Sunnyvale, Calif.) into 96-well clear bottom assay plates (Greiner Bio-One) with appropriate DMSO backfill for a final DMSO concentration of 0.03%. hMSCs were plated at 20,000 cells/well in 250 μL/well Incomplete Chondrogenic Induction Medium (Lonza; DMEM, dexamethasone, ascorbate, insulin-transferrin-selenium [ITS supplement], gentamycin-amphotericin [GA-1000], sodium pyruvate, proline and L-glutamine). TGF-β3 (10 ng/mL) was used as a positive control for differentiation while negative control wells were treated with 75 nL DMSO for normalization and calculating EC50 values. Cells were incubated at 37° C. and 5% CO2 for 6 days. To image chondrogenic nodules, the cells were fixed using 4% formaldehyde (Electron Microscopy Sciences), and stained with 2 μg/mL Rhodamine B (Sigma-Aldrich) and 20 μM Nile Red (Sigma-Aldrich) [Johnson K., et. al, A Stem Cell-Based Approach to Cartilage Repair, Science, (2012). 336(6082), 717-721]. The nodules imaged (4 images per well at 4× magnification) by excitation at 531 nm and emission at 625 nm and quantified using the CellInsight CX5 (Thermo Scientific). Number of nodules in each well was normalized to the average of 3 DMSO treated wells on the same plate using Excel (Microsoft Inc.). The normalized averages (fold change over DMSO) of 3 replicate wells for each compound concentration were calculated. Due to solubility limitations of some of the compounds, curve fitting was incomplete leading to inaccurate EC50 determinations.
Using TGF-β3 as a positive control, the concentration of representative compounds required to induce 50% levels of chondrogenesis is reported. In addition, the maximum activity of each compound and the respective dose that each compound reached maximum chondrogenesis activity is reported.

SMILES | EC50 (SW480 colon cancer cells) [µM] | EC50 [1] [µM] | EC50 [2] [nM] | Emax [2] [%] | inhibition at 10 µM (SW480 colon cancer cells) [%] | inhibition at 10 µM ([1]; given where EC50 >10 μM, 10 μM, read-out: percent inhibition at 10 μM) [%]
FC1(F)CCN(Cc2cncc(-c3ccc4[nH]nc(-c5cc6c(-c7ccccn7)cccc6[nH]5)c4n3)c2)C1 [Compound 166, 5-(5-((3,3-Difluoropyrrolidin-1-yl)methyl)pyridin-3-yl)-3-(4-(pyridin-2-yl)-1H-indol-2-yl)-1H-pyrazolo[4,3-b]pyridine] | 1.18 | 0.432 | 10 | 82 |  | 
c1ccc(-c2cccc3[nH]c(-c4n[nH]c5ccc(-c6cncnc6)nc45)cc23)nc1 [Compound 167, 3-(4-(Pyridin-2-yl)-1H-indol-2-yl)-5-(pyrimidin-5-yl)-1H-pyrazolo[4,3-b] pyridine] | > 10 | 0.431 |  | 41 | 13.8 | 
CCCCC(=O)Nc1cncc(-c2ccc3[nH]nc(-c4cc5c(N6CCCCC6)cccc5[nH]4)c3n2)c1 [Compound 187, N-(5-(3-(4-(Piperidin-1-yl)-1H-indol-2-yl)-1H-pyrazolo[4,3-b]pyridin-5-yl)pyridin-3-yl)pentanamide] | 4.44 | 0.572 | 100 | 69 |  | 
Cc1ccncc1-c1ccc2[nH]nc(-c3cc4c(N5CCN(C)CC5)cccc4[nH]3)c2n1 [Compound 229, 3-(4-(4-Methylpiperazin-1-yl)-1H-indol-2-yl)-5-(4-methylpyridin-3-yl)-1H-pyrazolo[4,3-b]pyridine] | 4.74 | 2.02 | 10 | 63 |  | 
CN1CCN(c2cccc3[nH]c(-c4n[nH]c5ccc(-c6cncc(NC(=O)c7ccccc7)c6)nc45)cc23)CC1 [Compound 235, N-(5-(3-(4-(4-Methylpiperazin-1-yl)-1H-indol-2-yl)-1H-pyrazolo[4,3-b]pyridin-5-yl)pyridin-3-yl)benzamide] | 3.91 | 4.06 |  | 19 |  | 
CN1CCN(c2cccc3[nH]c(-c4n[nH]c5ccc(-c6cncnc6)nc45)cc23)CC1 [Compound 251, 3-(4-(4-Methylpiperazin-1l-yl)-1H-indol-2-yl)-5-(pyrimidin-5-yl)-1H-pyrazolo[4,3-b]pyridine] | > 10 | > 10 | 100 | 67 | 15.3 | 38.4
CN(C)Cc1cncc(-c2ccc3[nH]nc(-c4cc5ccccc5[nH]4)c3n2)c1 [Compound 265, 1-(5-(3-(1H-Indol-2-yl)-1H-pyrazolo[4,3-b]pyridin-5-yl)pyridin-3-yl)-N,N-dimethylmethanamine] | 2.94 | 0.904 |  | 21 |  | 
FC1(F)CCN(Cc2cncc(-c3ccc4[nH]nc(-c5cc6ccccc6[nH]5)c4n3)c2)C1 [Compound 278, 5-(5-((3,3-Difluoropyrrolidin-1-yl)methyl)pyridin-3-yl)-3-(1H-indol-2-yl)-1H-pyrazolo[4,3-b]pyridine] | 0.59 | 0.117 | 2700 | 293 |  | 
CN(C)c1cncc(-c2ccc3[nH]nc(-c4cc5c(-c6ccoc6)cccc5[nH]4)c3n2)c1 [Compound 315, 5-(3-(4-(Furan-3-yl)-1H-indol-2-yl)-1H-pyrazolo[4,3-b]pyridin-5-yl)-N,N-dimethylpyridin-3-amine] | 1.91 | 0.6 | 2700 | 80 |  | 
c1cc(-c2ccoc2)c2cc(-c3n[nH]c4ccc(-c5cncc(CNCC6CCCC6)c5)nc34)[nH]c2c1 [Compound 333, 1-Cyclopentyl-N-((5-(3-(4-(furan-3-yl)-1H-indol-2-yl)-1H-pyrazolo[4,3-b]pyridin-5-yl)pyridin-3-yl)methyl)methanamine] | 3.45 | 3.64 |  | 25 |  | 
CN(C)CCNc1cc(F)cc(-c2cccc3[nH]c(-c4n[nH]c5ccc(-c6cccnc6)nc45)cc23)c1 [Compound 452, N^1-(3-Fluoro-5-(2-(5-(pyridin-3-yl)-1H-pyrazolo[4,3-b]pyridin-3-yl)-1H-indol-4-yl)phenyl)-N^2,N^2-dimethylethane-1,2-diamine] | 0.29 | 0.239 | 2700 | 67 |  | 
CN(C)CCNc1cc(F)cc(-c2cccc3[nH]c(-c4n[nH]c5ccc(-c6cncc(CN7CCCCC7)c6)nc45)cc23)c1 [Compound 463, N^1-(3-Fluoro-5-(2-(5-(5-(piperidin-1-ylmethyl)pyridin-3-yl)-1H-pyrazolo [4,3-b]pyridin-3-yl)-1H-indol-4-yl)phenyl)-N^2,N^2-dimethylethane-1,2-diamine] | 1.18 | 1.39 |  | 48 |  | 
CN(C)CCNc1cc(F)cc(-c2cccc3[nH]c(-c4n[nH]c5ccc(-c6cncnc6)nc45)cc23)c1 [Compound 475, N^1-(3-Fluoro-5-(2-(5-(pyrimidin-5-yl)-1H-pyrazolo[4,3-b]pyridin-3-yl)-1H-indol-4-yl)phenyl)-N^2,N^2-dimethylylethane-1,2-diamine] | 1.3 | 0.498 | 10 | 181 |  | 
CN(C)CCNc1cc(F)cc(-c2cccc3[nH]c(-c4n[nH]c5ccc(-c6ccccn6)nc45)cc23)c1 [Compound 476, N^1-(3-Fluoro-5-(2-(5-(pyridin-2-yl)-1H-pyrazolo[4,3-b]pyridin-3-yl)-1H-indol-4-yl)phenyl)-N^2,N^2-dimethylethane-1,2-diamine] | 5.9 | 4.62 |  | 42 |  | 
Cc1ccncc1-c1ccc2[nH]nc(-c3cc4c(-c5cc(F)cc(CNS(C)(=O)=O)c5)cccc4[nH]3)c2n1 [Compound 481, N-(3-Fluoro-5-(2-(5-(4-methylpyridin-3-yl)-1H-pyrazolo[4,3-b]pyridin-3-yl)-1H-indol-4-yl)benzyl)methanesulfonamide] | 0.592 | 0.162 | 900 | 143 |  | 
c1cc(-c2ccncc2)c2cc(-c3n[nH]c4ccc(-c5cncc(OCCN6CCCC6)c5)nc34)[nH]c2c1 [Compound 606, 3-(4-(Pyridin-4-yl)-1H-indol-2-yl)-5-(5-(2-(pyrrolidin-1-yl)ethoxy)pyridin-3-yl)-1H-pyrazolo[4,3-b]pyridine] | 1.88 | 4.99 | 900 | 74 |  | 
O=C(CC1CCNCC1)Nc1cncc(-c2ccc3[nH]nc(-c4cc5c(-c6ccccn6)cccc5[nH]4)c3n2)c1 [Compound 621, 2-(Piperidin-4-yl)-N-(5-(3-(4-(pyridin-2-yl)-1H-indol-2-yl)-1H-pyrazolo[4,3-b]pyridin-5-yl)pyridin-3-yl)acetamide] | > 10 | 1.6 |  | 8 | 51 | 
c1cc(N2CCCCC2)c2cc(-c3n[nH]c4ccc(-c5cncc(OC6CCNCC6)c5)nc34)[nH]c2c1 [Compound 636, 3-(4-(Piperidin-1-yl)-1H-indol-2-yl)-5-(5-(piperidin-4-yloxy)pyridin-3-yl)-1H-pyrazolo[4,3-b]pyridine] | 3.94 | 2.39 |  | 34 |  | 
